Data reported in patent publication US8524690B2, “DNA polymerase inhibitors composition and methods” (The Trustees of the University of Pennsylvania, priority 2007, dated 2013).

Columns and labels:
[1] = tested on: hair of the beard area; assay: Topical 3% cidofovir ointment applied once a day to beard area of a patient: alopecia and local tolerability; type: in vivo, human
Protocol: A 3% topical ointment of cidofovir was prepared by mixing 3 g of cidofovir in 97 g of petrolatum.
(§1) A 3% topical preparation of cidofovir was applied to the beard area of a patient. The formulation was applied by the patient once a day to the affected areas of the face for the treatment of verruca vulgaris (warts). […] After 4-8 weeks the patient had alopecia in the areas of the face where the medication was applied. This was the only hair bearing area that the patient applied the medication to. The warts resolved in approximately 2-3 months.
The hair cycle time of the face is the shortest on the body. At any one point in time, up to 80% of the hair on the face (i.e. the beard area) is in the active growth phase.

[2] = tested on: verruca vulgaris (warts); assay: Topical 3% cidofovir applied to the face for treatment of verruca vulgaris (warts); type: in vivo, human; settings: 3% topical ointment, once a day, one patient
Protocol: as §1, with “A 3% topical ointment of cidofovir was prepared by mixing 3 g of cidofovir in 97 g of petrolatum. A 3%” for “A 3%”

[3] = cited from earlier work

Row | SMILES | time until alopecia in the areas of the face where the medication was applied ([1]; 3% topical ointment in petrolatum, once a day, beard area, one patient) | local reaction to application ([1]; 3% topical ointment, once a day, face, application discontinued for several days then resumed) | hair regrowth upon discontinuation of topical cidofovir ([1]; after stopping 3% topical cidofovir, beard area) | time until warts resolved [2] | oral bioavailability [3]
1 | Nc1ccn(C[C@@H](CO)OCP(=O)(O)O)c(=O)n1 [cidofovir, (S)-1-[3-hydroxy-2-(phosphonylmethoxy)propyl]cytosine] | 4-8 weeks | mild inflammation | the hair grew back | 2-3 months | 
2 | Nc1nc2c(ncn2COCCO)c(=O)[nH]1 [Acyclovir] |  |  |  |  | low oral bioavailability
